Data reported in ChEMBL document CHEMBL1143035, “Synthesis, antifungal and haemolytic activity of a series of bis(pyridinium)alkanes” (Bioorg Med Chem, 2007).
Converted amounts (≈) assume the structure as drawn. Structures can show the parent of a compound that is named as a salt.

Assays:
[1] = target: T1, Phospholipase B (Cryptococcus neoformans) (UniProt Q9P8P2); assay: Inhibition of phospholipase B activity of PLB1 in Cryptococcus neoformans var. grubii H99 assessed as loss of 1,2-di[1-14C]palmitoyl phosphatidylcholine at 250 uM
T1 sequence (whole entry): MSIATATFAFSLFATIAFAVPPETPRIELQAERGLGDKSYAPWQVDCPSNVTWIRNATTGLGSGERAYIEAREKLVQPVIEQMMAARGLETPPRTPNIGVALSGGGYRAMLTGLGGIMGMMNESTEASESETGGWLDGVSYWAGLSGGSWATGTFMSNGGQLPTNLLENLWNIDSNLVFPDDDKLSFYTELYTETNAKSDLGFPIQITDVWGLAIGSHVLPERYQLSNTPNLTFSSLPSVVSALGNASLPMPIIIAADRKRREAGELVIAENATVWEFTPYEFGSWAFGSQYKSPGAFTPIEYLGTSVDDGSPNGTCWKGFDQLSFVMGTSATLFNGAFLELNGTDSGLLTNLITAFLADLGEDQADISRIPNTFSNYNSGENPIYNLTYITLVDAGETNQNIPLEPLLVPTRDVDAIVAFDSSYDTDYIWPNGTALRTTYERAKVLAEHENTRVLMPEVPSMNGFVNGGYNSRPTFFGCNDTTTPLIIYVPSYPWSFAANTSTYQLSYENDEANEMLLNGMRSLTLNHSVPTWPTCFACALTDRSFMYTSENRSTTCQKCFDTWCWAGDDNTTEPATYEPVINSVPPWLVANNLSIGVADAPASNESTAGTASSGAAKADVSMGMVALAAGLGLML

[2] = test system: Cryptococcus neoformans; assay: Antifungal activity against Cryptococcus neoformans ATCC 90112; assay type: functional
[3] = test system: Candida albicans; assay: Antifungal activity against Candida albicans ATCC 10231; assay type: functional
[4] = Cytotoxicity against human erythrocytes assessed as hemolytic activity at 500 uM; assay type: cell-based; details: erythrocyte
[5] = test system: Aspergillus fumigatus; assay: Antifungal activity against Aspergillus fumigatus ATCC 204 305; assay type: functional
[6] = test system: Aspergillus terreus; assay: Antifungal activity against Aspergillus terreus 03-232-378; assay type: functional
[7] = test system: Aspergillus flavus; assay: Antifungal activity against Aspergillus flavus ATCC 204 304; assay type: functional
[8] = test system: Scedosporium boydii; assay: Antifungal activity against Scedosporium apiospermum 1-003-056; assay type: functional
[9] = test system: Lomentospora prolificans; assay: Antifungal activity against Scedosporium prolificans 1-003-040; assay type: functional
[10] = test system: Fusarium solani; assay: Antifungal activity against Fusarium solani 04-132-4207; assay type: functional
[11] = target: T1, Phospholipase B (Cryptococcus neoformans); assay: Inhibition of lysophospholipase activity of PLB1 in Cryptococcus neoformans var. grubii H99 assessed as loss of 1-[14C]palmitoyl lyso phosphatidylcholine at 250 uM
[12] = target: T1, Phospholipase B (Cryptococcus neoformans); assay: Inhibition of lysophospholipase transacylase activity of PLB1 in Cryptococcus neoformans var. grubii H99 assessed as rate of formation of 1-[14C]palmitoyl lyso phosphatidylcholine at 250 uM
[13] = target: T1, Phospholipase B (Cryptococcus neoformans); assay: Inhibition of phospholipase B activity of PLB1 in Cryptococcus neoformans var. grubii H99 assessed as loss of 1,2-di[1-14C]palmitoyl phosphatidylcholine at 25 uM
[14] = target: T1, Phospholipase B (Cryptococcus neoformans); assay: Inhibition of lysophospholipase activity of PLB1 in Cryptococcus neoformans var. grubii H99 assessed as loss of 1-[14C]palmitoyl lyso phosphatidylcholine at 25 uM
[15] = target: T1, Phospholipase B (Cryptococcus neoformans); assay: Inhibition of lysophospholipase transacylase activity of PLB1 in Cryptococcus neoformans var. grubii H99 assessed as rate of formation of 1-[14C]palmitoyl lyso phosphatidylcholine at 25 uM
[16] = target: T1, Phospholipase B (Cryptococcus neoformans); assay: Inhibition of phospholipase B activity of PLB1 in Cryptococcus neoformans var. grubii H99 assessed as loss of 1,2-di[1-14C]palmitoyl phosphatidylcholine at 2.5 uM
[17] = target: T1, Phospholipase B (Cryptococcus neoformans); assay: Inhibition of lysophospholipase activity of PLB1 in Cryptococcus neoformans var. grubii H99 assessed as loss of 1-[14C]palmitoyl lyso phosphatidylcholine at 2.5 uM
[18] = target: T1, Phospholipase B (Cryptococcus neoformans); assay: Inhibition of lysophospholipase transacylase activity of PLB1 in Cryptococcus neoformans var. grubii H99 assessed as rate of formation of 1-[14C]palmitoyl lyso phosphatidylcholine at 2.5 uM
[19] = target: T1, Phospholipase B (Cryptococcus neoformans); assay: Inhibition of phospholipase B activity of PLB1 in Cryptococcus neoformans var. grubii H99 assessed as loss of 1,2-di[1-14C]palmitoyl phosphatidylcholine at 0.25 uM
[20] = target: T1, Phospholipase B (Cryptococcus neoformans); assay: Inhibition of lysophospholipase activity of PLB1 in Cryptococcus neoformans var. grubii H99 assessed as loss of 1-[14C]palmitoyl lyso phosphatidylcholine at 0.25 uM
[21] = target: T1, Phospholipase B (Cryptococcus neoformans); assay: Inhibition of lysophospholipase transacylase activity of PLB1 in Cryptococcus neoformans var. grubii H99 assessed as rate of formation of 1-[14C]palmitoyl lyso phosphatidylcholine at 0.25 uM
[22] = Cytotoxicity against human erythrocytes assessed as hemolytic activity at 50 uM; assay type: cell-based, Erythrocyte; details: read-out: Activity
[23] = Cytotoxicity against human erythrocytes assessed as hemolytic activity at 5 uM; assay type: cell-based, Erythrocyte; details: read-out: Activity

Q: Which inhibition [1] does the source give for `Nc1cc[n+](CCCCCCCCCCCCCCCC[n+]2ccc(N)cc2)cc1.[Br-].[Br-]` here?
A: 40%

Q: What about the MIC [2] of the same compound?
A: 1.4 µM

Q: What about the MIC [3] of the same compound?
A: 1.4 µM

Q: And the Activity [4]?
A: Not Active

Q: Which results are given for `[Br-].[Br-].c1cc[n+](CCCCCCCC[n+]2ccccc2)cc1`?
A: MIC [2]: > 350 µM; MIC [3]: 175 µM; Activity [4]: Not Active

Q: Which MIC [2] does the source give for `[Br-].[Br-].c1cc[n+](CCCCCC[n+]2ccccc2)cc1` here?
A: > 350 µM

Q: And the MIC [3]?
A: 175 µM

Q: What about the Activity [4] of the same compound?
A: Not Active

Q: What does the source list for `[Br-].[Br-].c1cc[n+](CCCCCCCCCCCC[n+]2ccccc2)cc1`?
A: MIC [2]: 88 µM; MIC [3]: 44 µM; Activity [4]: Not Active

Q: What does the source list for `CNc1cc[n+](CCCCCCCCCCCC[n+]2ccc(NC)cc2)cc1.[Br-].[Br-]`?
A: MIC [2]: 2.8 µM; MIC [3]: 1.4 µM; MIC [5]: 44 µM; MIC [6]: 11 µM; MIC [7]: 44 µM; MIC [8]: 2.8 µM; MIC [9]: 2.8 µM; MIC [10]: 44 µM; Activity [4]: Not Active

Q: Which MIC [2] does the source give for `[Cl-].[Cl-].c1ccc2c(c1)ccc[n+]2CCCCCCCCCCCC[n+]1cccc2ccccc21` here?
A: 11 µM

Q: And the MIC [3]?
A: 22 µM

Q: And the Activity [4]?
A: Not Active

Q: Which inhibition [1] does the source give for `CN(C)c1cc[n+](CCCCCCCCCCCC[n+]2ccc(N(C)C)cc2)cc1.[Br-].[Br-]` here?
A: 40%

Q: What about the MIC [2] of the same compound?
A: 2.8 µM

Q: And the MIC [3]?
A: 2.8 µM

Q: What about the Activity [4] of the same compound?
A: Not Active

Q: What does the source list for `Cc1cc(N)c2ccccc2[n+]1CCCCCCCCCC[n+]1c(C)cc(N)c2ccccc21.[Cl-].[Cl-]` [DEQUALINIUM CHLORIDE]?
A: MIC [2]: 11 µM; MIC [3]: 5.5 µM; Activity [4]: Not Active

Q: Which results are given for `[Br-].[Br-].c1ccc2c(c1)ccc[n+]2CCCCCCCCCC[n+]1cccc2ccccc21`?
A: MIC [2]: 88 µM; MIC [3]: 88 µM; Activity [4]: Not Active

Q: For `C[C@@H]1[C@H](O)[C@@H](C)/C=C/C=C/C=C/C=C/C=C/C=C/C=C/[C@H](O[C@@H]2O[C@H](C)[C@@H](O)[C@H](N)[C@@H]2O)C[C@@H]2O[C@](O)(C[C@@H](O)C[C@@H](O)[C@H](O)CC[C@@H](O)C[C@@H](O)CC(=O)O[C@H]1C)C[C@H](O)[C@H]2C(=O)O` [AMPHOTERICIN B], which MIC [2] is on record?
A: 0.55 µM (≈ 0.508 µg/mL)

Q: And the MIC [3]?
A: 0.55 µM (≈ 0.508 µg/mL)

Q: What about the MIC [6] of the same compound?
A: 1.1 µM (≈ 1.02 µg/mL)

Q: What about the MIC [7] of the same compound?
A: 0.55 µM (≈ 0.508 µg/mL)

Q: And the MIC [8]?
A: 0.55 µM (≈ 0.508 µg/mL)

Q: And the MIC [9]?
A: 4.4 µM (≈ 4.07 µg/mL)

Q: And the MIC [10]?
A: 0.28 µM (≈ 0.259 µg/mL)

Q: For `[Br-].[Br-].c1cc[n+](CCCCCCCCCC[n+]2ccccc2)cc1`, which MIC [2] is on record?
A: 350 µM

Q: And the MIC [3]?
A: 88 µM

Q: What about the Activity [4] of the same compound?
A: Not Active

Q: Which MIC [2] does the source give for `Cc1cc(N)c2ccccc2[n+]1CCCCCCCCCCCC[n+]1c(C)cc(N)c2ccccc21.[Cl-].[Cl-]` here?
A: 88 µM

Q: And the MIC [3]?
A: 22 µM

Q: What about the Activity [4] of the same compound?
A: Not Active

Q: With `Br.Br.N=c1ccn(CCCCCCCCCCCCn2ccc(=N)cc2)cc1` as the compound, how does the inhibition [1] read?
A: 40%

Q: And the MIC [2]?
A: 5.5 µM

Q: What about the MIC [3] of the same compound?
A: 1.4 µM

Q: What about the Activity [4] of the same compound?
A: Not Active

Q: Which results are given for `Nc1cccc[n+]1CCCCCCCCCCCC[n+]1ccccc1N.[Br-].[Br-]`?
A: inhibition [1]: 40%; MIC [2]: 5.5 µM; MIC [3]: 5.5 µM; Activity [4]: Not Active

Q: With `Cc1cc(N)c2ccccc2[n+]1CCCCCCCC[n+]1c(C)cc(N)c2ccccc21.[Br-].[Br-]` as the compound, how does the MIC [2] read?
A: 5.5 µM

Q: What about the MIC [3] of the same compound?
A: 5.5 µM

Q: What about the Activity [4] of the same compound?
A: Not Active

Q: Which inhibition [1] does the source give for `CCCCCCCCN=c1ccn(CCCCCCCCCCn2ccc(=NCCCCCCCC)cc2)cc1` [OCTENIDINE HYDROCHLORIDE] here?
A: 100%

Q: What about the inhibition [11] of the same compound?
A: 97%

Q: What about the inhibition [12] of the same compound?
A: 97%

Q: And the inhibition [13]?
A: 80%

Q: What about the inhibition [14] of the same compound?
A: 46%

Q: What about the inhibition [15] of the same compound?
A: 43%

Q: And the inhibition [16]?
A: 50%

Q: What about the inhibition [17] of the same compound?
A: 16%

Q: What about the inhibition [18] of the same compound?
A: 12%

Q: What about the inhibition [19] of the same compound?
A: 0%

Q: What about the inhibition [20] of the same compound?
A: 0%

Q: What about the inhibition [21] of the same compound?
A: 0%

Q: And the MIC [2]?
A: 0.7 µM

Q: And the MIC [3]?
A: 1.4 µM

Q: What about the hemolysis at 50 µM [22] of the same compound?
A: 43%

Q: What about the hemolysis at 5 µM [23] of the same compound?
A: 9%

Q: What does the source list for `Br.Br.N=c1ccn(CCCCCCCCCCn2ccc(=N)cc2)cc1`?
A: MIC [2]: 22 µM; MIC [3]: 2.8 µM; Activity [4]: Not Active
